Measurements published in publication PMC8950663, “Cyanobacteria Secondary Metabolites as Biotechnological Ingredients in Natural Anti-Aging Cosmetics: Potential to Overcome Hyperpigmentation, Loss of Skin Density and UV Radiation-Deleterious Effects” (Marine Drugs, 2022).

Target: T1, hyaluronidase (HAase)
T1 construct: gene SPAM1
Test: colorimetric DMAB end-point assay of hyaluronic acid degradation, […] nm
Type: biochemical
Details: hyaluronic acid substrate (0.7 mg/mL stock), 37 °C, 30 min; positive control

**Q.** For `O=C(O)c1cc(=O)c2c(OCC(O)COc3cccc4oc(C(=O)O)cc(=O)c34)cccc2o1` [di-sodium cromoglicate], which IC50 is on record?
**A.** 1105 µg/mL
